Here are results for four compounds from patent US20140221283A1 (Indiana University Research and Technology Corporation, priority 2011, published 2014).

For one assay, the target named is T1, GIP receptor (Homo sapiens, UniProt P48546).
T1 construct: expressed in transfected cells; host or cells: HEK293
T1 sequence (P48546 22-466): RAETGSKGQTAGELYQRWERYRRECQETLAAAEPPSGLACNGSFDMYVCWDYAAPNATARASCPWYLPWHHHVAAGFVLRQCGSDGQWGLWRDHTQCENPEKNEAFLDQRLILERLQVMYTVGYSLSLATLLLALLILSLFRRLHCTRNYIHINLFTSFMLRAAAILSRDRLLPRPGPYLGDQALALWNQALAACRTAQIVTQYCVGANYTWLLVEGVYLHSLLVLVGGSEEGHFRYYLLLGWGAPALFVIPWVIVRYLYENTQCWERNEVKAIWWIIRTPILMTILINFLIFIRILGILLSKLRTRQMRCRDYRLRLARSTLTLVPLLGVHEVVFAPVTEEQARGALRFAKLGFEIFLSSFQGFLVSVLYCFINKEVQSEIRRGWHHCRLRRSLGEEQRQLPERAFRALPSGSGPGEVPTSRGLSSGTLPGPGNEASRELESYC
Kind of assay: firefly luciferase-based cAMP reporter assay, HEK293 cells, GIP receptor (Example 3). The format is cell-based. The following applies: procedure of Example 3. On the procedure:
It is understood that a lower EC50 indicates higher activity or potency at the receptor.
(§1) The ability of each peptide to induce cAMP was measured in a firefly luciferase-based reporter assay.
(§2) At the end of the incubation, 100 μL of LucLite luminescence substrate reagent (Perkin Elmer, Wellesley, Mass.) were added to each well.
In some instances, the in vitro agonist activity at the GIP receptor was also tested.
On the technique in general: Reporter assays use an easily measured gene product as a stand-in for the process of interest.

The target of another assay is T2, glucagon receptor (Homo sapiens, UniProt P47871).
T2 construct: expressed in transfected cells; host or cells: HEK293
Briefly: firefly luciferase-based cAMP reporter assay, HEK293 cells co-transfected with glucagon receptor (Example 3). Format: cell-based. The following applies: procedure of Example 3. How it is done:
as §1, §2

Assay [1] in a line: body weight of diet-induced obese (DIO) mice dosed daily for nine days (Example 7). Format: in vivo. The following applies: Day 9; for body weight reduction: 3 nmol/kg daily; for body weight loss: 9 nmol/kg daily. How it is done:
(§3) Mice were administered a vehicle control or a dose of a peptide daily for nine days. The peptides tested in this study included a peptide of SEQ ID NO: 12, a peptide of SEQ ID NO: 17, a peptide of SEQ ID NO: 18, and a peptide of SEQ ID NO: 19. Doses of each peptide were varied—each of the peptides of SEQ ID NO: 12, 17, and 19 was administered at a dose of either 3 nmol/kg or 9 nmol/kg, while the peptide of SEQ ID NO: 18 was administered at a dose of 1 nmol/kg, 3 nmol/kg, or 9 nmol/kg. Data are expressed as mean±SEM.

A further assay has as its target human GLP-1R (Homo sapiens, UniProt P43220). Kind of assay: firefly luciferase-based cAMP reporter assay, HEK293 cells co-transfected with GLP-1 receptor (Example 3). Format: cell-based. Set-up: expressed in transfected cells; host or cells: HEK293. The following applies: procedure of Example 3. On the procedure: as §1, §2
Assay [2] can be described thus: ambient glucose levels of DIO mice dosed daily for nine days (Example 7). Format: in vivo. The following applies: for decrease in ambient glucose vs. vehicle: by Day 4. How it is done:
as §3
In addition to cumulative body weight change, ambient glucose levels of the DIO mice were measured.

*1 amine or outer side, *2 acyl side, *3 side chain or, on linkers, in order; H or OH if unused. Where a SMILES comes first, the peptide text is derived from it. Where no end group is shown, it is not given here. Side-chain parts run from the residue outwards. [ ]: non-standard residue; d: D form. The star is where a group is joined. γGlu = O=C(O)[C@H](CCC(=O)[*:2])N[*:1]; Palmitoyl = CCCCCCCCCCCCCCCC(=O)*; Aib = CC(C)(N)C(=O)O

human GLP-1R, sequence (P43220 24-463): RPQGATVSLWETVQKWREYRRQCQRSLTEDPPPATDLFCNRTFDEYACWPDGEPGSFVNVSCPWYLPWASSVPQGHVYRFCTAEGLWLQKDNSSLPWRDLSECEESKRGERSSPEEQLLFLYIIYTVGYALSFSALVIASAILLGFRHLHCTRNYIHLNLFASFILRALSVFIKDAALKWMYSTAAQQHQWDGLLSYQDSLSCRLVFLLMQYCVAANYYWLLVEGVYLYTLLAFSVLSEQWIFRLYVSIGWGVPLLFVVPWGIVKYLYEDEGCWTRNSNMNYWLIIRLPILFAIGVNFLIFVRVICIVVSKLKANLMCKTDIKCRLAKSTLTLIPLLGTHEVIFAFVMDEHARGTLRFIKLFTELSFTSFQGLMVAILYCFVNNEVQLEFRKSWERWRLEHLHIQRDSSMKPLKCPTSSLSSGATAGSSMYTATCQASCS
T2 sequence (P47871 26-477): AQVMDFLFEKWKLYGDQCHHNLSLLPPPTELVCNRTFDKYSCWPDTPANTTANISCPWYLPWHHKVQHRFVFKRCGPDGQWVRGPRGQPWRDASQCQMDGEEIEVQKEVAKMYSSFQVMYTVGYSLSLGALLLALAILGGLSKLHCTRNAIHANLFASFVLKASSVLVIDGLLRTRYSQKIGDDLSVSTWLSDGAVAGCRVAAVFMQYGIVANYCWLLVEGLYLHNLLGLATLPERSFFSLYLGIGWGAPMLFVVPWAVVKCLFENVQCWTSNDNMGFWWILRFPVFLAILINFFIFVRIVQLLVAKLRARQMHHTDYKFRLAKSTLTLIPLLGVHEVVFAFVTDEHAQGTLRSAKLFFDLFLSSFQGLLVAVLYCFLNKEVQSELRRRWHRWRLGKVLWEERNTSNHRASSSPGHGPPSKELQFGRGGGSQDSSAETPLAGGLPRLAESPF

Consider `CCCCCCCCCCCCCCCC(=O)N[C@@H](CCC(=O)N[C@@H](CCC(=O)NCCCC[C@H](NC(=O)[C@H](CC(=O)O)NC(=O)[C@H](CO)NC(=O)[C@@H](NC(=O)[C@H](Cc1ccccc1)NC(=O)[C@@H](NC(=O)CNC(=O)[C@H](CCC(N)=O)NC(=O)C(C)(C)NC(=O)[C@@H](N)Cc1c[nH]cn1)[C@@H](C)O)[C@@H](C)O)C(=O)N[C@@H](CO)C(=O)N[C@@H](CCCCN)C(=O)N[C@@H](Cc1ccc(O)cc1)C(=O)N[C@@H](CC(C)C)C(=O)N[C@@H](CC(=O)O)C(=O)NC(C)(C)C(=O)N[C@@H](CCCNC(=N)N)C(=O)N[C@@H](C)C(=O)N[C@@H](C)C(=O)N[C@@H](CCC(N)=O)C(=O)N[C@@H](CC(=O)O)C(=O)N[C@@H](Cc1ccccc1)C(=O)N[C@H](C(=O)N[C@@H](CCC(N)=O)C(=O)N[C@@H](Cc1c[nH]c2ccccc12)C(=O)N[C@@H](CC(C)C)C(=O)N[C@@H](CCSC)C(=O)N[C@@H](CC(=O)O)C(=O)N[C@H](C(=O)N[C@@H](CCCCN)C(=O)N[C@@H](CCC(N)=O)C(=O)O)[C@@H](C)O)C(C)C)C(=O)O)C(=O)O` [SEQ ID NO: 12] (H-H[Aib]QGTFTSDK([γGlu-γGlu-Palmitoyl])SKYLD[Aib]RAAQDFVQWLMDTKQ-OH; N-terminus assumed), for which the EC50 at GIP receptor is 12.8 nM; on glucagon receptor it was 0.01 nM; on human GLP-1R, 0.003 nM. Further, in assay [1], the body weight reduction is recorded as roughly 5.3%. For the same compound, the body weight loss in assay [1] is on record as roughly 29.8%.

As for `CCCCCCCCCCCCCCCC(=O)N[C@@H](CCC(=O)N[C@@H](CCC(=O)NCCCC[C@H](NC(=O)[C@H](CC(=O)O)NC(=O)[C@H](CO)NC(=O)[C@@H](NC(=O)[C@H](Cc1ccccc1)NC(=O)[C@@H](NC(=O)CNC(=O)[C@H](CCC(N)=O)NC(=O)C(C)(C)NC(=O)[C@@H](N)Cc1c[nH]cn1)[C@@H](C)O)[C@@H](C)O)C(=O)N[C@@H](CO)C(=O)N[C@@H](CCCCN)C(=O)N[C@@H](Cc1ccc(O)cc1)C(=O)N[C@@H](CC(C)C)C(=O)N[C@@H](CC(=O)O)C(=O)NC(C)(C)C(=O)N[C@@H](CCCNC(=N)N)C(=O)N[C@@H](C)C(=O)N[C@@H](C)C(=O)N[C@@H](CCC(N)=O)C(=O)N[C@@H](CC(=O)O)C(=O)N[C@@H](Cc1ccccc1)C(=O)N[C@H](C(=O)N[C@@H](CCC(N)=O)C(=O)N[C@@H](Cc1c[nH]c2ccccc12)C(=O)N[C@@H](CC(C)C)C(=O)N[C@@H](CC(C)C)C(=O)N[C@@H](CC(=O)O)C(=O)N[C@H](C(=O)N[C@@H](CCCCN)C(=O)N[C@@H](CCC(N)=O)C(=O)O)[C@@H](C)O)C(C)C)C(=O)O)C(=O)O` [SEQ ID NO: 16] (H-H[Aib]QGTFTSDK([γGlu-γGlu-Palmitoyl])SKYLD[Aib]RAAQDFVQWLLDTKQ-OH; N-terminus assumed), the EC50 amounted to 1.04 nM at GIP receptor, 0.015 nM at glucagon receptor and 0.019 nM at human GLP-1R.

In assay [1], “SEQ ID NO: 18: peptide of SEQ ID NO: 18 tested in DIO mice; sequence only in the sequence listing (HXQGTFTSDKSKYLDERAAQDFVQWLMDT; not fully specified; Xaa is AIB; Acylated with a C16 fatty acyl group via gamma- Glu-gamma-Glu spacer; C-terminal amidation)” yielded a body weight reduction of roughly 12.3% and a body weight loss of roughly 26.8%. The “decrease in ambient glucose vs. vehicle” value in assay [2] (3 nmol/kg daily) is −29%. In addition, in assay [2] (9 nmol/kg daily), the “decrease in ambient glucose vs. vehicle” value was −29%.

Take “SEQ ID NO: 19: peptide of SEQ ID NO: 19 tested in DIO mice; sequence only in the sequence listing (H[dS]QGTFTSDK([γGlu-Palmitoyl])SKYLDERAAQDFVQWLLDT-NH2; N-terminus assumed; SMILES CCCCCCCCCCCCCCCC(=O)N[C@@H](CCC(=O)NCCCC[C@H](NC(=O)[C@H](CC(=O)O)NC(=O)[C@H](CO)NC(=O)[C@@H](NC(=O)[C@H](Cc1ccccc1)NC(=O)[C@@H](NC(=O)CNC(=O)[C@H](CCC(N)=O)NC(=O)[C@@H](CO)NC(=O)[C@@H](N)Cc1c[nH]cn1)[C@@H](C)O)[C@@H](C)O)C(=O)N[C@@H](CO)C(=O)N[C@@H](CCCCN)C(=O)N[C@@H](Cc1ccc(O)cc1)C(=O)N[C@@H](CC(C)C)C(=O)N[C@@H](CC(=O)O)C(=O)N[C@@H](CCC(=O)O)C(=O)N[C@@H](CCCNC(=N)N)C(=O)N[C@@H](C)C(=O)N[C@@H](C)C(=O)N[C@@H](CCC(N)=O)C(=O)N[C@@H](CC(=O)O)C(=O)N[C@@H](Cc1ccccc1)C(=O)N[C@H](C(=O)N[C@@H](CCC(N)=O)C(=O)N[C@@H](Cc1c[nH]c2ccccc12)C(=O)N[C@@H](CC(C)C)C(=O)N[C@@H](CC(C)C)C(=O)N[C@@H](CC(=O)O)C(=O)N[C@H](C(N)=O)[C@@H](C)O)C(C)C)C(=O)O)”: in assay [1], the body weight reduction is on record as roughly 8.1%. In assay [1], the body weight loss is given as roughly 31.5%. In addition, the “decrease in glucose levels compared to vehicle control mice” value in assay [2] (9 nmol/kg daily, Day 4) is recorded as roughly 40%; in assay [2] (9 nmol/kg daily, Day 7), roughly 39%; in assay [2] (9 nmol/kg daily, Day 9), roughly 26%.

One may read the EC50 as the concentration needed to bring the measured effect to its halfway point. Read a high EC50 as a less potent agent.
